From US20250090689A1, “[…] FOR TREATING EPILEPSY AND NEUROPATHIC PAIN” (Trames Bio, Inc., priority 2022, published 2025) come the findings set out here.

For this experiment, the target named is T1, CODA71 receptor (Homo sapiens, UniProt P36544, F159M/H163T/I152M/R155K/V154L/W156N/Y151P).
T1 construct: expressed in transfected cells; host or cells: mouse brain neurons transduced in vivo with AAV carrying expression cassettes #11, #13, #33, #34, #35, #36 (KA focal epilepsy model)
Put plainly: kainic acid (KA) focal epilepsy mouse model, seizure frequency after repeated dosing of TC-5619. Format: in vivo. The text has this: Six expression cassettes—#11, #13, #33, #34, #35, and #36 in Table 2—were each packaged into the AAV vector and tested in a kainic acid (KA) focal epilepsy mouse model. The animals were then monitored for seizure frequency following repeated dosing of TC-5619, an activator of the CODA71 receptor transgene encoded by these expression cassettes.

T1 sequence (P36544 with tags, fused parts or gaps Y151P/I152M/V154L/R155K/W156N/F159M/H163T): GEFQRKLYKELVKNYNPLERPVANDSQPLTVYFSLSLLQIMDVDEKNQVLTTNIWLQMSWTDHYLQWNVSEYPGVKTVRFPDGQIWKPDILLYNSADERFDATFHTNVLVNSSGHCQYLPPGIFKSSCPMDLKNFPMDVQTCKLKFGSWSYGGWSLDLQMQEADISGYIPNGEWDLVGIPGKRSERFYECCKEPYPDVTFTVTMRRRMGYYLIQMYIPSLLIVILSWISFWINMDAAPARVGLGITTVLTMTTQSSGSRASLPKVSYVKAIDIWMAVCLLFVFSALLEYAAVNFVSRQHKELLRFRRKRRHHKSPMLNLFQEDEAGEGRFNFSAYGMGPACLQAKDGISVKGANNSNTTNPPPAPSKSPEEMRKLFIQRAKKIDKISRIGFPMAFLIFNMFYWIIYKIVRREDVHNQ

On to `O=C(N[C@@H]1C2CCN(CC2)[C@H]1Cc1cccnc1)c1cc2ccccc2o1` [TC-5619], for which the seizure burden result (higher dose ranges of TC-5619, KA mice with AAV-delivered CODA71 cassettes) was “significantly reduced seizure burden”. In addition, where the note is “repeated dosing of TC-5619 in KA mice injected with AAV carrying cassettes #11, #13, #33, #34, #35 or #36, FIG. 7”, the seizure frequency result is recorded as “dose-dependent reduction of seizure frequency”. Further, the “residual effect after washout (return to baseline)” value (repeated single doses of TC-5619 followed by washout) was “no residual effect”.
